Laboratory results reported in patent publication US20260125346A1, “Isoquinolinone Derivatives and 4H-Quinolizinone Derivatives and Pharmaceutical Compositions Thereof for the Treatment of Disease” (BeOne Medicines I GmbH, priority 2023, published 2026).

Legend:
[1] = biological target: PI3Kα (p110[H1047R]/p85) kinase (Homo sapiens, UniProt P42336, H1047R); test: PI3Kα (p110[H1047R]/p85) kinase ADP-Glo Assay; format: biochemical; details: 25 uM ATP; for selectivity: WT/H1047R: ADP-Glo Assay IC50 ratio
PI3Kα (p110[H1047R]/p85) kinase, sequence (P42336 whole entry H1047R): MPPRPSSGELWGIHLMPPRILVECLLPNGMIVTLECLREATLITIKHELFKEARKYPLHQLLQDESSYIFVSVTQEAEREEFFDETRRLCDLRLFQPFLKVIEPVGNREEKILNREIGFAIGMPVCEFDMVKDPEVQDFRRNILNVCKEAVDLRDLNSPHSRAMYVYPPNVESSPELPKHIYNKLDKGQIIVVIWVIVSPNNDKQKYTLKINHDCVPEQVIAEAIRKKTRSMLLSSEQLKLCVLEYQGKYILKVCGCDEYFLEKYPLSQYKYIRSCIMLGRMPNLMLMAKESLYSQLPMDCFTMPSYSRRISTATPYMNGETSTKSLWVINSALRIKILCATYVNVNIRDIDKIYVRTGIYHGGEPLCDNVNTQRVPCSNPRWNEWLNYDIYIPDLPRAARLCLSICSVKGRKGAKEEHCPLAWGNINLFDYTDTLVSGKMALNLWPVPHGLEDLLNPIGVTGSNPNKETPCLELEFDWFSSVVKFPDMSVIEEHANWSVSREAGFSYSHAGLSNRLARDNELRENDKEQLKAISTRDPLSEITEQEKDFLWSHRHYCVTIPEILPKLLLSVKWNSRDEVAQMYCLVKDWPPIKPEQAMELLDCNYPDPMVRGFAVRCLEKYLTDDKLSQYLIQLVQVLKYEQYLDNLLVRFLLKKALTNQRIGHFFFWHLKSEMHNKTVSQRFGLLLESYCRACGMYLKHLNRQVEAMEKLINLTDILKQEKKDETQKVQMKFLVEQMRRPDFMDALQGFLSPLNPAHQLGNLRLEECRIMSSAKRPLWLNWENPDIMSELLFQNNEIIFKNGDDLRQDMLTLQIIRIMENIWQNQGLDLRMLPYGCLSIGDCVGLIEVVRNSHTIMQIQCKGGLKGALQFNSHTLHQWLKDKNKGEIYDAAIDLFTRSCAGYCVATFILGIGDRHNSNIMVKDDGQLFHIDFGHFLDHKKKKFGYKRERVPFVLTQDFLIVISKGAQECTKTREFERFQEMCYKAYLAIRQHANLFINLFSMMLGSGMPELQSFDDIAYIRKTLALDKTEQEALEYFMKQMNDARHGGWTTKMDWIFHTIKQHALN
PI3Kα (p110[H1047R]/p85) kinase, sequence (P27986 whole entry partner): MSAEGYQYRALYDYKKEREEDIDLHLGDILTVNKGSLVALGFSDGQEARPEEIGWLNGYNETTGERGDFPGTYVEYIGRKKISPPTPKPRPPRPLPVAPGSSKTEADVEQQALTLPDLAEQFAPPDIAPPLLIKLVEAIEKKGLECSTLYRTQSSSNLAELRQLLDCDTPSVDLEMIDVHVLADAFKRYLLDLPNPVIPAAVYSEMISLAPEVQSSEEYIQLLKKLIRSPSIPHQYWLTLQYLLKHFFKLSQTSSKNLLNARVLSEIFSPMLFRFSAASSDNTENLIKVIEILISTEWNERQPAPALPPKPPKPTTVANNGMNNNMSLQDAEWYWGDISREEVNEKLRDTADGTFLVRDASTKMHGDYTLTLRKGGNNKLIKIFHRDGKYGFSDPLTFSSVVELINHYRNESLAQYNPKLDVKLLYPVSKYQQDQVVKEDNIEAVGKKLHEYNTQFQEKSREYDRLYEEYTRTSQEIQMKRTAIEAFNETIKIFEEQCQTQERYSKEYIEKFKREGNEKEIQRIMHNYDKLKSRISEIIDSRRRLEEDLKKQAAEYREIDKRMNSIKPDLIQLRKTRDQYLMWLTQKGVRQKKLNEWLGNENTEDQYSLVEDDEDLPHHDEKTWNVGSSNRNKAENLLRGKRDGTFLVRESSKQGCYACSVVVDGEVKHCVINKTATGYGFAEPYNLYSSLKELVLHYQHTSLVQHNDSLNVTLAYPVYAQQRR
Description: PI3Kα (p110[H1047R]/p85) kinase ADP-Glo Assay. Certain compounds disclosed herein were tested for inhibition of PI3Kα (p110[H1047R]/p85) kinase in assays based on the ADP-Glo™ Kinase Assay methodology. The assays were carried out in 384-well white plates in a reaction mixture containing PI3Kα (p110[H1047R]/p85) kinase, 25 µM ATP, 5.35 µg/ml PI(4,5)P2:PS Lipid Kinase Substrate and […] compound in buffer containing 50 mM HEPES pH7.5, 50 mM NaCl, 3 mM MgCl2, 0.0025% BSA and 2 mM DTT. PI3Kα (p110[H1047R]/p85) kinase was incubated with Lipid Kinase Substrate and compound for 30 minutes at room temperature and the reaction was initiated by the addition of ATP.
After reaction at room temperature for 120 minutes, ADP-Glo™ reagents were added to terminate the kinase reaction and deplete the remaining ATP according to the manufacture's instruction (Promega Corporation). After incubation at room temperature for 1 hour, Kinase Detection Reagent (prepared by reconstituting the lyophilized Kinase Detection Substrate with Kinase Detection Buffer of the kit) was added to convert the ADP to ATP and to allow for the newly synthesized ATP to be measured using a luciferase/luciferin reaction. After incubation at room temperature for 0.5 hour, chemiluminescence signals were recorded on a PHERAstar FSX plate reader (BMG Labtech). The chemiluminescence generated in this assay correlates to the amount of ADP generated in the kinase assay, indicating kinase activity. […] The IC50 for each compound was derived from fitting the data to the four-parameter logistic equation by Dotmatics.

[2] = biological target: PI3Kα (p110/p85) kinase (wild type, "WT") (Homo sapiens, UniProt P42336); test: PI3Kα (p110/p85) kinase ADP-Glo Assay; format: biochemical; details: 25 uM ATP
PI3Kα (p110/p85) kinase (wild type, "WT"), sequence (P42336 whole entry): as the sequence (P42336 whole entry H1047R) above, with R1047H counted along it
PI3Kα (p110/p85) kinase (wild type, "WT"), sequence (P27986 whole entry partner): as the sequence (P27986 whole entry partner) above
Description: PI3Kα (p110/p85) kinase ADP-Glo Assay. Certain compounds disclosed herein were tested for inhibition of PI3Kα (p110/p85) kinase (wild type, “WT”) in assays based on the ADP-Glo™ Kinase Assay methodology. The assays were carried out in 384-well white plates in a reaction mixture containing PI3Kα (p110/p85) kinase, 25 µM ATP, 5.35 µg/mL PI(4,5)P2:PS Lipid Kinase Substrate and […] compound in buffer containing 50 mM HEPES pH7.5, 50 mM NaCl, 3 mM MgCl2, 0.0025% BSA and 2 mM DTT. PI3Kα (p110/p85) kinase was incubated with Lipid Kinase Substrate and compound for 30 minutes at room temperature and the reaction was initiated by the addition of ATP. After reaction at room temperature for 120 minutes, ADP-Glo™ reagents were added to terminate the kinase reaction and deplete the remaining ATP according to the manufacture's instruction (Promega Corporation). After incubation at room temperature for 1 hour, Kinase Detection Reagent (prepared by reconstituting the lyophilized Kinase Detection Substrate with Kinase Detection Buffer of the kit) was added to convert the ADP to ATP and to allow for the newly synthesized ATP to be measured using a luciferase/luciferin reaction. After incubation at room temperature for 0.5 hour, chemiluminescence signals were recorded on a PHERAstar FSX plate reader (BMG Labtech). The chemiluminescence generated in this assay correlates to the amount of ADP generated in the kinase assay, indicating kinase activity. […] The IC50 for each compound was derived from fitting the data to the four-parameter logistic equation by Dotmatics.

| IC50 [1] | selectivity: WT/H1047R [1] | IC50 [2] | Structure (SMILES) |
| --- | --- | --- | --- |
| 9.29 µM | >10 | > 100 µM | Cc1cc(C(C)Nc2cnccc2C(=O)O)c2cc(-c3ccc(F)cc3)n(C)c(=O)c2c1 (stereo not shown) [Example 54, 3-((1-(3-(4-fluorophenyl)-2,7-dimethyl-1-oxo-1,2-dihydroisoquinolin-5-yl)ethyl)amino)isonicotinic acid] |
| 21.7 µM | 1.6 | 34.3 µM | Cc1cc([C@H](C)Nc2ccccc2C(=O)O)c2cc(-c3cnc(C(C)(C)O)nc3)n(C)c(=O)c2c1 [Example 68, (S)-2-((1-(3-(2-(2-hydroxypropan-2-yl)pyrimidin-5-yl)-2,7-dimethyl-1-oxo-1,2-dihydroisoquinolin-5-yl)ethyl)amino)benzoic acid] |
| > 100 µM | – | > 100 µM | Cc1cc([C@H](C)Nc2ccccc2C(=O)O)c2cc(-c3ccc(F)cc3)n(CC#N)c(=O)c2c1 [Example 65, (S)-2-((1-(2-(cyanomethyl)-3-(4-fluorophenyl)-7-methyl-1-oxo-1,2-dihydroisoquinolin-5-yl)ethyl)amino)benzoic acid] |
| 1.93 µM | 46.0 | 88.8 µM | Cc1cc(C(C)Nc2ccccc2C(=O)O)c2cc(-c3ccccc3C(N)=O)n(C)c(=O)c2c1 (stereo not shown) [Example 90, 2-((1-(3-(2-carbamoylphenyl)-2,7-dimethyl-1-oxo-1,2-dihydroisoquinolin-5-yl)ethyl)amino)benzoic acid] |
| 16.4 µM | 1.5 | 24.1 µM | COc1ncc(-c2cc3c([C@H](C)Nc4ccccc4C(=O)O)cc(C)cc3c(=O)n2C)cc1F [Example 60, (S)-2-((1-(3-(5-fluoro-6-methoxypyridin-3-yl)-2,7-dimethyl-1-oxo-1,2-dihydroisoquinolin-5-yl)ethyl)amino)benzoic acid] |
| 0.432 µM | 17.0 | 7.36 µM | Cc1cc([C@@H](C)Nc2ccccc2C(=O)O)c2cc(-c3ccc(C(C)(C)O)cc3)n(C)c(=O)c2c1 [Example 98, (R)-2-((1-(3-(4-(2-hydroxypropan-2-yl)phenyl)-2,7-dimethyl-1-oxo-1,2-dihydroisoquinolin-5-yl)ethyl)amino)benzoic acid] |
| > 100 µM | – | > 100 µM | Cc1cc(C(C)Nc2csc3ccccc23)c2cc(-c3ccccc3)n(C)c(=O)c2c1 (stereo not shown) [Example 93, 5-(1-(benzo[b]thiophen-3-ylamino)ethyl)-2,7-dimethyl-3-phenylisoquinolin-1(2H)-one] |
